Our source for the IC50 and IC90 values is ChEMBL document CHEMBL1149053, “beta-Carbolines from the blue-green alga Dichothrix baueriana” (J Nat Prod, 1994).

The structures appear in SMILES notation. In brackets after ≈: the same amount, converted by molar mass.

In assay [1] the test system is LoVo. Kind of assay: Cytotoxicity against human LoVo cells. In kind it is functional, cell-based.
Assay [2] relates to Human alphaherpesvirus 2. Kind of assay: Antiviral activity against HSV2 clinical isolate. In kind it is functional.

In the case of `Cn1c2c(Cl)c(Cl)ccc2c2cc[nH]c(=O)c21` [BAUERINE C], the IC50 (commonly the concentration needed to halve the response being measured) in assay [1] was determined as 0.03 µg/mL (≈ 0.112 µM). Also, in assay [2], the IC90 (in general, the point of the concentration-response curve where the effect stands at 90%) was 2.5 µg/mL (≈ 9.36 µM).

In turn, `Cn1c2cnccc2c2ccc(Cl)c(Cl)c21` [BAUERINE B] came in with a concentration for half-maximal inhibition (IC50) in assay [1] of 5 µg/mL (≈ 19.9 µM). The molecule further gave an IC90 in assay [2] of 3 µg/mL (≈ 11.9 µM).

In turn, `Cn1c2cnccc2c2ccc(Cl)cc21` [BAUERINE A] yielded an IC50 in assay [1] of 3 µg/mL (≈ 13.8 µM). The molecule further registered an IC90 in assay [2] of 2 µg/mL (≈ 9.23 µM).
